# In US8372837B2, “Pyridone and pyridazone analogues as GPR119 modulators” (Bristol-Myers Squibb Company, priority 2008, dated 2013):
# Target: T1, hGPR119 (Homo sapiens, UniProt Q8TDV5)
# T1 construct: expressed in transfected cells; host or cells: Flp-In T-REx 293 (tetracycline-inducible)
# T1 sequence (Q8TDV5 1-335): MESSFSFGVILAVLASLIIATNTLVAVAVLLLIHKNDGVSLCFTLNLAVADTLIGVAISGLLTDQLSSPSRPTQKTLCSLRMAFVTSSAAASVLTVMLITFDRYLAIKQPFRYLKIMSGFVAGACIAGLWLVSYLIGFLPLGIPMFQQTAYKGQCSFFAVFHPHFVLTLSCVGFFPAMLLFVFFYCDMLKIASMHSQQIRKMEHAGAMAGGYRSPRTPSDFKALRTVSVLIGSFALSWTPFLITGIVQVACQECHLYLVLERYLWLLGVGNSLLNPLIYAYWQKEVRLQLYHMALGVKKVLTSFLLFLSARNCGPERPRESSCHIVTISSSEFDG
# Assay: Human Tet-inducible cAMP assay
# Assay type: cell-based
# Settings: Flp-In T-REx 293 tetracycline inducible cells expressing GPR119; cAMP by HITHUNTER kit; 1 hour incubation
# Method: The in vitro modulation of recombinant human GPR119 was determined as follows.
# Human Tet-Inducible cAMP Assay
# Cell lines expressing GPR119 are generated using the Flp-In T-REx 293 tetracycline inducible gene expression system are cultured in culture medium comprising the following components: DMEM#11965, 10% FBS, 2 mM L-glutamine, 200 ug/ml Hygromycin B, and 15 ug/ml blasticidin.
# For cAMP assays, cells are plated on 96 well plates (e.g., BD Falcon: REF 353948, black side, clear bottom, TC surface) at a density of about 4.5×10^4 cells per well in growth medium containing 1.0 ug/ml tetracycline (1.0 mg/ml stock). The cells are then incubated for 48 hours at 37° C.
# Following the incubation, the growth medium is removed from the wells and the wells rinsed (once) with the assay buffer included in the HITHUNTER® cAMP kit (100 μl/well). Following the wash, 20 μl of assay buffer is added to each well, followed by addition of 10 μl of a 3× concentration compound working solution. The solution is then mixed. The final concentration range of compound is from about 10^−5M to about 10^−11 M. The reagents are then incubated at 37° C. at 5% CO2 for 1 hour.
# The manufacturer's protocol may be followed for cAMP determination. The HITHUNTER® cAMP kit protocol is outlined for the HIT-T15 cAMP assays described above.
# Compounds of the present invention were tested in the Human Tet-inducible cAMP assay described immediately above and the results shown in Table 1 below were obtained.
row,Structure (SMILES),EC50
1,"CC(=O)c1cnc(N2CCC(Oc3cnn(-c4ccc(S(C)(=O)=O)cc4)c(=O)c3)CC2)nc1 [Example 11, 5-(1-(5-Acetylpyrimidin-2-yl)piperidin-4-yloxy)-2-(4-(methylsulfonyl)phenyl)pyridazin-3(2H)-one]",4600 nM
2,"CC(C)(C)OC(=O)N1CCC(Oc2cc(=O)n(-c3ccc(Cl)c(Cl)c3)nc2C(N)=O)CC1 [Example 16, tert-Butyl 4-(3-carbamoyl-1-(3,4-dichlorophenyl)-6-oxo-1,6-dihydropyridazin-4-yloxy)piperidine-1-carboxylate]",3390 nM
3,"COC(=O)c1nn(-c2ccc(S(C)(=O)=O)cc2)c(=O)cc1OC1CCN(C(=O)OC(C)(C)C)CC1 [Example 18, Methyl 4-(1-(tert-butoxycarbonyl)piperidin-4-yloxy)-1-(4-(methylsulfonyl)phenyl)-6-oxo-1,6-dihydropyridazine-3-carboxylate]",4010 nM
4,"N#Cc1nn(-c2ccc(Cl)c(Cl)c2)c(=O)cc1OC1CCN(c2ncc(C(F)(F)F)cn2)CC1 [Example 26, 1-(3,4-Dichlorophenyl)-6-oxo-4-(1-(5-(trifluoromethyl)pyrimidin-2-yl)piperidin-4-yloxy)-1,6-dihydropyridazine-3-carbonitrile]",5 nM
5,"CC(C)(C)OC(=O)N1CCC(Oc2cc(=O)n(-c3ccc(S(C)(=O)=O)cc3)nc2C#N)CC1 [Example 31, tert-Butyl 4-(3-cyano-1-(4-(methylsulfonyl)phenyl)-6-oxo-1,6-dihydropyridazin-4-yloxy)piperidine-1-carboxylate]",83 nM
6,"CC(C)(C)OC(=O)N1CCC(Oc2cc(=O)n(-c3ccc(C#N)c(F)c3)nc2C#N)CC1 [Example 34, tert-Butyl 4-(3-cyano-1-(4-cyano-3-fluorophenyl)-6-oxo-1,6-dihydropyridazin-4-yloxy)piperidine-1-carboxylate]",3 nM
7,"CCCc1cnc(N2CCC(Oc3cc(=O)n(-c4ccc(C#N)c(F)c4)nc3C#N)CC2)nc1 [Example 38, 1-(4-Cyano-3-fluorophenyl)-6-oxo-4-(1-(5-propylpyrimidin-2-yl)piperidin-4-yloxy)-1,6-dihydropyridazine-3-carbonitrile]",8 nM
8,"COC(=O)c1nn(-c2ccc(C#N)c(F)c2)c(=O)cc1OC1CCN(c2ncc(Br)cn2)CC1 [Example 42, Methyl 4-(1-(5-bromopyrimidin-2-yl)piperidin-4-yloxy)-1-(4-cyano-3-fluorophenyl)-6-oxo-1,6-dihydropyridazine-3-carboxylate]",107 nM
9,"CC(C)(C)OC(=O)N1CCC(Oc2cc(=O)n(-c3ccc(Br)c(F)c3)nc2C#N)CC1 [Example 45, tert-Butyl 4-(1-(4-bromo-3-fluorophenyl)-3-cyano-6-oxo-1,6-dihydropyridazin-4-yloxy)piperidine-1-carboxylate]",95 nM
